Data set [1] deals with NB4 human cells expressing the oncogene PML-RARα. Nature of the data set: Survival of NSG mice injected intravenously with NB4 human cells. It counts as in vivo. The protocol: (§1) A) Kaplan-Meier survival curve relative to NSG mice injected with NB4 human cells. NB4 human cells expressing the oncogene PML-RARα were injected intravenously in NSG mice and distributed in two groups. […] Treatment was performed for two weeks. Mice were monitored daily until the development of symptoms of leukaemia, when bone marrow (B), spleen (C) and liver (D) were harvested, processed, stained with PE-conjugated antibody against human CD33 and analysed by FACS, to quantify the human cell engraftment in these organs. E) Kaplan-Meier survival curve relative to NSG mice injected with Kasumi human cells. Kasumi human cells expressing the oncogene AML1-ETO were injected intra-femur in NSG mice and distributed in two groups. […] Treatment was performed for two weeks. Mice were monitored daily until the development of symptoms of leukaemia, when bone marrow (F), spleen (G) and liver (H) were harvested, processed, stained with PE-conjugated antibody against human CD33 and analysed by FACS, to quantify the human cell engraftment in these organs. I) and J Kaplan-Meier survival curves of FVB and C57Bl/6 mice injected with M4-PML-RARα and MLL-AF9 cells, respectively. ATRA resistant M4-PML-RARα cells were injected intravenously in FVB mice and distributed in three groups. […] Mice were monitored daily until the development of symptoms of leukaemia, when bone marrow (K), spleen (L) and liver (M) were harvested, processed, stained with PE-conjugated antibody against mouse Gr1 and analysed by FACS, to quantify the human cell engraftment in these organs. […]
(§2) In order to test the efficacy of this treatment in vivo, we transplanted Kasumi and NB4 cell lines into a small cohort of sublethally irradiated NOD/SCID/IL2Rg−/− (NSG) mice by intra-femoral and intravenous injection, respectively. […] The maximum dose tolerated was calculated by in vivo dose-response experiments. Mice were monitored daily until they developed symptoms of leukaemia, when they were culled and bone marrow, spleen and liver harvested and analyzed by FACS. […]

For data set [2], the system named is breast, prostate and ovarian cancer patients carrying mutations in BRCA1 or BRCA2 genes. The conditions noted are these: phase I and phase II trials; cited from earlier work.
Data set [3] deals with Kasumi human cells expressing the oncogene AML1-ETO. Nature of the data set: Survival of NSG mice injected intra-femur with Kasumi human cells. It counts as in vivo. The protocol: as §1, §2
Data set [4] has as its system untargeted population of ovarian cancer. The conditions noted are these: phase II; cited from earlier work.
The subject of data set [5] is PML-RARα transformed cells. The data set can be described thus: Clonogenic assay in methylcellulose, RTTA-transformed primary leukaemic cells. The data set is classed as cell-based, mouse. The protocol: (§3) FIG. 2 AML1-ETO and PML-RARα leukemic cells are sensitive to PARPi. A) Representative scheme of experimental procedures. B) Non linear regression dose response curve. Normal bone marrow c-kit cells and pre-leukaemic cells expressing the oncofusion proteins AML1-ETO, E2A-PBX, MLL-AF9 and PML-RARα were grown in methylcellulose for 7 days with escalating doses of PARPi. Data representative of three independent experiments are shown. C) Percentage of survival of preleukemic cells to PARPi. The number of colonies surviving to seven days incubation with PARPi treatment was normalized against the untreated control. Data representative of six independent experiments are shown ±SD. […] D) Colony morphology (phase contrast microscopy, magnification 40×). Representative pictures are shown. E) Efficiency of PARP1 Knock down (KD) in NIH3T3 cells infected with retroviral vectors expressing shRNA against mouse PARP1. qPCR data showing expression of PARP1 mRNA in NIH3T3 after infection with sh-mPARP1. Data representative of two independent experiments are shown ±SD. Paired two-tailed t test was performed between empty vector and i) scramble, ii) sh-PARP1-A and iii) sh-PARP1-D*p<0.05. F) Efficiency of PARP1 by Western Blot. Western Blot data showing protein level of PARP1 in NIH3T3 after infection with sh-mPARP1. G) Efficiency of PARP1 KD in leukemic cells infected with retroviral vectors expressing shRNA against mouse PARP1. qPCR data showing expression of PARP1 mRNA in leukemic cells after infection with sh-mPARP1. Data representative of three independent experiments are shown ±SD. 2-way Anova test was performed between empty vector and i) scramble, ii) sh-PARP1-A and iii) sh-PARP1-D*p<0.05, **p<0.01, ***p<0.001. H) Relative number of colonies arisen from leukemic cells transformed by indicated oncoproteins after shPARP1-mediated KD. Bone marrow cells were co-transduced with retroviral vectors carrying the oncogene of interest and empty vector or sh-scramble or shPARP1. The number of colonies was normalized against the empty vector control. Data representative of three independent experiments are shown ±SD. 2-way Anova test was performed between empty vector and i) scramble, ii) sh-PARP1-A and iii) sh-PARP1-D*p<0.05, **p<0.01, ***p<0.001. I) Colony morphology from phase contrast microscopy (magnification 40×). Representative pictures are shown. […] The number of colonies after PARPi treatment was normalized against the untreated control. Data representative of three independent experiments are shown ±SD. […] K) Colony morphology (phase contrast microscopy, magnification 20×). Representative pictures are shown. […] The number of colonies after PARPi treatment was normalized against the untreated control. Data representative of three independent experiments are shown ±SD. […] M) Colony morphology (phase contrast microscopy, magnification 20×). Representative pictures are shown. […] The number of colonies after PARPi treatment was normalized against the untreated control. Data representative of three independent experiments are shown ±SD. […] O) Colony morphology (phase contrast microscopy, magnification 20×). Representative pictures are shown.
(§4) Briefly, c-kit positive progenitor cells of wild type Ly5.1 mouse bone marrow transduced with a retroviral vector expressing the LATFs of interest were plated into a methylcellulose medium supplemented with appropriate myeloid cytokines. Replating was performed every week to generate primary cell lines for further analysis. […] Veliparib is an inhibitor of PARP1/2 produced by Abbott and widely used in clinical trials.

In data set [6] the test system is AML1-ETO transformed cells. The data set is described as above. It counts as cell-based, mouse. As to the method:
as §3, §4

Data set [7] deals with NB4-LR2. Nature of the data set: Colony assay in methylcellulose, ATRA resistant APL cell model. It counts as cell-based, human. The settings on record: Olaparib 5 μM, methylcellulose 7 days. The protocol:
(§5) FIG. 2 AML1-ETO and PML-RARα leukemic cells are sensitive to PARPi. A) Representative scheme of experimental procedures. B) Non linear regression dose response curve. Normal bone marrow c-kit cells and pre-leukaemic cells expressing the oncofusion proteins AML1-ETO, E2A-PBX, MLL-AF9 and PML-RARα were grown in methylcellulose for 7 days with escalating doses of PARPi. Data representative of three independent experiments are shown. C) Percentage of survival of preleukemic cells to PARPi. The number of colonies surviving to seven days incubation with PARPi treatment was normalized against the untreated control. Data representative of six independent experiments are shown ±SD. […] D) Colony morphology (phase contrast microscopy, magnification 40×). Representative pictures are shown. E) Efficiency of PARP1 Knock down (KD) in NIH3T3 cells infected with retroviral vectors expressing shRNA against mouse PARP1. qPCR data showing expression of PARP1 mRNA in NIH3T3 after infection with sh-mPARP1. Data representative of two independent experiments are shown ±SD. Paired two-tailed t test was performed between empty vector and i) scramble, ii) sh-PARP1-A and iii) sh-PARP1-D*p<0.05. F) Efficiency of PARP1 by Western Blot. Western Blot data showing protein level of PARP1 in NIH3T3 after infection with sh-mPARP1. […]

Data set [8] deals with NB4-MR2. Described as above. It counts as cell-based, human. The conditions noted are these: Olaparib 5 μM, methylcellulose 7 days. As to the method: as §5
The test system of data set [9] is MLL-AF9 cells. The data set can be described thus: C57Bl/6 mice injected with leukaemic MLL-AF9 cells. The conditions noted are these: Olaparib 50 mg/kg intra-peritoneal daily for two weeks. It counts as in vivo. The protocol: as §1, with “organs.” for “organs. I) and J Kaplan-Meier survival curves of FVB and C57Bl/6 mice injected with M4-PML-RARα and MLL-AF9 cells, respectively. ATRA resistant M4-PML-RARα cells were injected intravenously in FVB mice and distributed in three groups.”

Data set [10] concerns bone marrow c-kit+ cells. Nature of the data set: PARPi titration, colony assay in methylcellulose, normal bone marrow cells. The data set is classed as cell-based. The conditions noted are these: Mus musculus, Bone marrow cell, 168 h; colonies counted after seven days in methylcellulose; nonlinear regression. The protocol: FIG. 1 PARPi titration. A) PARPi titration in normal bone marrow c-kit cells grown in methylcellulose for 7 days. Data representative of three independent experiments are shown ±SD. […] B) Non linear regression dose response curve, obtained by logarithmic transformation of the data presented in the panel A. C) Colony morphology (contrast microscopy magnification 40×). Representative pictures are shown.
Bone marrow cells were treated with escalating doses of Olaparib in methylcellulose. After seven days colonies were counted. The number of colonies obtained in the untreated condition was set as the top value (100%). The bottom value (0) was calculated as the lowest concentration resulting in no colonies. The data where then analyzed in a nonlinear regression dose-response curve (FIG. 1).

Data set [11] relates to NB4. Nature of the data set: Colony assay in methylcellulose, human cell line. It counts as cell-based. The conditions noted are these: Olaparib 1-5 μM, methylcellulose 7 days. As to the method: as §5
Data set [12] concerns Kasumi. The data set can be described thus: Colony assay in methylcellulose, human cell line. The data set is classed as cell-based. The conditions noted are these: Olaparib 1-5 μM, methylcellulose 7 days. The protocol:
as §5

Data set [13] relates to ATRA resistant M4-PML-RARα cells. Nature of the data set: ATRA resistant mouse model, FVB mice injected with M4-PML-RARα cells. The data set is classed as in vivo. The settings on record: Olaparib 50 mg/kg intra-peritoneal daily for two weeks. As to the method:
as §1, with “organs.” for “organs. I) and J Kaplan-Meier survival curves of FVB and C57Bl/6 mice injected with M4-PML-RARα and MLL-AF9 cells, respectively. ATRA resistant M4-PML-RARα cells were injected intravenously in FVB mice and distributed in three groups.”

Data set [14] deals with E2A-PBX transformed cells. The data set can be described thus: Clonogenic assay in methylcellulose, RTTA-transformed primary leukaemic cells. It counts as cell-based, mouse. The conditions noted are these: 1 μM, methylcellulose 7 days. As to the method:
as §3, §4

In data set [15] the test system is MLL-AF9 transformed cells. The data set is described as above. The data set is classed as cell-based, mouse. The conditions noted are these: 1 μM, methylcellulose 7 days. The protocol:
as §3, §4

Setting [16] is: Olaparib 25 mg/kg daily for two weeks, FACS human CD33.
[17] abbreviates: Olaparib 25 mg/kg intra-peritoneal daily for two weeks.

One may read the IC50 as the concentration that inhibits the measured activity by half. In the case of `O=C(c1cc(Cc2n[nH]c(=O)c3ccccc23)ccc1F)N1CCN(C(=O)C2CC2)CC1` [Olaparib, 4-[(3-[(4-cyclopropylcarbonyl)piperazin-4-yl]carbonyl)-4-fluorophenyl]methyl(2H)-phthalazin-1-one], the “engraftment in bone marrow, spleen and liver” value in [1] (setting [16]) and in data set [3] (setting [16]) was “variable reduction” throughout. Also, the “onset of the leukaemia” value in data set [1] (setting [17]), in data set [3] (setting [17]) and in [13] was “significantly delayed” each time. The median survival is reported as 47 days in [1] (Olaparib 25 mg/kg intra-peritoneal daily for two weeks, control 30 days) and 115 days in data set [3] (Olaparib 25 mg/kg intra-peritoneal daily for two weeks, control 50 days, experiment still ongoing). Also, the anti-tumour effect entry in data set [2] is listed as “anti-tumour effect”. The side effects entry in data set [2] is on record as “grade 1 or 2”. For the same compound, in data set [4], the “overall survival benefit compared to chemotherapy” value is given as “failed to show overall survival benefit”. Moreover, the half-maximal inhibitory concentration (IC50) in data set [5] (Mus musculus, 168 h) turned out to be 15.8 nM; in data set [6] (Mus musculus, 168 h) it was 33.4 nM; in [10] it was 1900 nM. In addition, the “reduction in colony forming ability” value is given as 70-90% in data set [5] (Olaparib 1 uM, p<0.05) and 70-90% in data set [6] (Olaparib 1 uM, p<0.05). The “reduction of number of colonies after additional replating” value in data set [6] (replating in semi-solid medium containing Olaparib, p<0.05) is given as 90%. For the same compound, the “sensitivity (colony number)” value in data set [7] and in [8] was “extremely sensitive” throughout. Further, the “effect on mice developing leukaemia” value in data set [9] is given as “did not have any significant effect”. In addition, the “efficacy on colony number” value in data set [11] and in [12] was “confirm the efficacy” in each case.

On to `C[C@]1(c2nc3c(C(N)=O)cccc3[nH]2)CCCN1` [Veliparib, 2-((R)-2-methylpyrrolidin-2-yl)-1H-benzimidazole-4-carboxamide], for which the effect on colonies result in data set [5] (1 μM, methylcellulose 7 days) is “reduced colonies”; in data set [14] it was “no effect”; in [15], “no effect”; in data set [6] (1 μM, methylcellulose 7 days) it was “reduced colonies”.

The values are drawn from patent publication US20160208339A1, “BIOMARKERS CORRELATED TO PARP INHIBITOR TREATMENT SUCCESS IN AML PATIENTS” (KING'S COLLEGE LONDON, priority 2013, published 2016).
